# Source: PubChem BioAssay AID1963978 (Molecular Pharmacology Branch, DTP, NCI, 2024)
# System: 616215-338-R-J1-PDC spheroids with HUVEC/MSC, viability
# Experiment: Anticancer human tumor 616215-338-R-J1-PDC patient-derived colon adenocarcinoma cell line growth inhibition [PI3K]
# Conditions: for viability, T/C: stronger effect = lower value
# Procedure, shortened: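 Three cell types, namely tumor cells, endothelial cells and mesenchymal stem cells, formed each spheroid. Combinations with four PI3K inhibitors were screened at clinically achievable concentrations decreasing by half-log, and spheroid viability was recorded.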
# [1] = curve of first compound, second compound 0.0316 µM
# [2] = curve of first compound, second compound 0.1 µM
# [3] = curve of first compound, second compound 0.316 µM
# [4] = curve of first compound, second compound 1 µM
# [5] = curve of first compound, second compound 3.16 µM
# [6] = curve of first compound, second compound 10 µM
# [7] = second compound 0.0316 µM, first compound 0.0316 µM
# [8] = second compound 0.0316 µM, first compound 0.1 µM
# [9] = second compound 0.0316 µM, first compound 0.316 µM
# [10] = second compound 0.0316 µM, first compound 1 µM
# [11] = second compound 0.0316 µM, first compound 3.16 µM
# [12] = second compound 0.0316 µM, first compound 10 µM
# [13] = second compound 0.1 µM, first compound 0.0316 µM
# [14] = second compound 0.1 µM, first compound 0.1 µM
# [15] = second compound 0.1 µM, first compound 0.316 µM
# [16] = second compound 0.1 µM, first compound 1 µM
# [17] = second compound 0.1 µM, first compound 3.16 µM
# [18] = second compound 0.1 µM, first compound 10 µM
# [19] = second compound 0.316 µM, first compound 0.0316 µM
# [20] = second compound 0.316 µM, first compound 0.1 µM
# [21] = second compound 0.316 µM, first compound 0.316 µM
# [22] = second compound 0.316 µM, first compound 1 µM
# [23] = second compound 0.316 µM, first compound 3.16 µM
# [24] = second compound 0.316 µM, first compound 10 µM
# [25] = second compound 1 µM, first compound 0.0316 µM
# [26] = second compound 1 µM, first compound 0.1 µM
# [27] = second compound 1 µM, first compound 0.316 µM
# [28] = second compound 1 µM, first compound 1 µM
# [29] = second compound 1 µM, first compound 3.16 µM
# [30] = second compound 1 µM, first compound 10 µM
# [31] = second compound 3.16 µM, first compound 0.0316 µM
# [32] = second compound 3.16 µM, first compound 0.1 µM
# [33] = second compound 3.16 µM, first compound 0.316 µM
# [34] = second compound 3.16 µM, first compound 1 µM
# [35] = second compound 3.16 µM, first compound 3.16 µM
# [36] = second compound 3.16 µM, first compound 10 µM
# [37] = second compound 10 µM, first compound 0.0316 µM
# [38] = second compound 10 µM, first compound 0.1 µM
# [39] = second compound 10 µM, first compound 0.316 µM
# [40] = second compound 10 µM, first compound 1 µM
# [41] = second compound 10 µM, first compound 3.16 µM
# [42] = second compound 10 µM, first compound 10 µM
# 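Note: spheroids exposed to agents for seven days before the viability read.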
structure (smiles),measurement,setting,value
CNC(=O)c1ccc(N2C(=S)N(c3ccc(C#N)c(C(F)(F)F)c3)C(=O)C2(C)C)cc1F + Cc1nc(NC(=O)N2CCCC2C(N)=O)sc1-c1ccnc(C(C)(C)C(F)(F)F)c1,IC50,[1],> 10 µM
same,IC50,[2],> 10 µM
same,IC50,[3],> 10 µM
same,IC50,[4],> 10 µM
same,IC50,[5],> 10 µM
same,IC50,[6],> 10 µM
same,"viability, T/C",[7],97.6%
same,"viability, T/C",[8],95.1%
same,"viability, T/C",[9],102%
same,"viability, T/C",[10],96.5%
same,"viability, T/C",[11],95.6%
same,"viability, T/C",[12],93%
same,"viability, T/C",[13],116%
same,"viability, T/C",[14],86%
same,"viability, T/C",[15],94.7%
same,"viability, T/C",[16],99%
same,"viability, T/C",[17],91.9%
same,"viability, T/C",[18],103%
same,"viability, T/C",[19],94%
same,"viability, T/C",[20],99.9%
same,"viability, T/C",[21],109%
same,"viability, T/C",[22],97.9%
same,"viability, T/C",[23],94.4%
same,"viability, T/C",[24],93.1%
same,"viability, T/C",[25],101%
same,"viability, T/C",[26],96.4%
same,"viability, T/C",[27],104%
same,"viability, T/C",[28],97.4%
same,"viability, T/C",[29],101%
same,"viability, T/C",[30],104%
same,"viability, T/C",[31],101%
same,"viability, T/C",[32],93.8%
same,"viability, T/C",[33],91.3%
same,"viability, T/C",[34],90%
same,"viability, T/C",[35],93.5%
same,"viability, T/C",[36],90.6%
same,"viability, T/C",[37],90.6%
same,"viability, T/C",[38],93.3%
same,"viability, T/C",[39],98.4%
same,"viability, T/C",[40],98.9%
same,"viability, T/C",[41],99.4%
same,"viability, T/C",[42],54.6%
CC(Cn1ccc(-c2ccc(C#N)c(Cl)c2)n1)NC(=O)c1cc(C(C)O)[nH]n1 (stereo unspecified),"viability, T/C",compound 0.0316 µM,99.3% [middle of 4 runs]
same,"viability, T/C",compound 0.316 µM,97.2% [middle of 4 runs]
same,"viability, T/C",compound 1 µM,101% [middle of 4 runs]
same,"viability, T/C",compound 10 µM,101% [middle of 4 runs]
same,IC50,curve of compound,> 10 µM
CC(Nc1ncnc2nc[nH]c12)c1cc2cccc(Cl)c2c(=O)n1-c1ccccc1 (stereo unspecified),"viability, T/C",compound 0.0316 µM,103% [middle of 8 runs]
same,"viability, T/C",compound 0.1 µM,96.5% [middle of 8 runs]
same,"viability, T/C",compound 0.316 µM,99.3% [middle of 8 runs]
same,"viability, T/C",compound 1 µM,105% [middle of 8 runs]
same,"viability, T/C",compound 3.16 µM,102% [middle of 8 runs]
same,"viability, T/C",compound 10 µM,105% [middle of 8 runs]
same,IC50,"compound alone, run of 05/09/2023",> 10 µM
CNC(=O)c1ccc(N2C(=S)N(c3ccc(C#N)c(C(F)(F)F)c3)C(=O)C2(C)C)cc1F + CC(Nc1ncnc2nc[nH]c12)c1cc2cccc(Cl)c2c(=O)n1-c1ccccc1,IC50,[1],> 10 µM
same,IC50,[2],> 10 µM
same,IC50,[3],> 10 µM
same,IC50,[4],> 10 µM
same,IC50,[5],> 10 µM
same,IC50,[6],> 10 µM
same,"viability, T/C",[7],98.5%
same,"viability, T/C",[8],107%
same,"viability, T/C",[9],109%
same,"viability, T/C",[10],106%
same,"viability, T/C",[11],104%
same,"viability, T/C",[12],101%
same,"viability, T/C",[13],91%
same,"viability, T/C",[14],98.9%
same,"viability, T/C",[15],96%
same,"viability, T/C",[16],97.9%
same,"viability, T/C",[17],108%
same,"viability, T/C",[18],114%
same,"viability, T/C",[19],97.2%
same,"viability, T/C",[20],97%
same,"viability, T/C",[21],105%
same,"viability, T/C",[22],97.1%
same,"viability, T/C",[23],110%
same,"viability, T/C",[24],112%
same,"viability, T/C",[25],113%
same,"viability, T/C",[26],109%
same,"viability, T/C",[27],111%
same,"viability, T/C",[28],105%
same,"viability, T/C",[29],111%
same,"viability, T/C",[30],114%
same,"viability, T/C",[31],95.6%
same,"viability, T/C",[32],94.3%
same,"viability, T/C",[33],111%
same,"viability, T/C",[34],104%
same,"viability, T/C",[35],103%
same,"viability, T/C",[36],106%
same,"viability, T/C",[37],104%
same,"viability, T/C",[38],117%
same,"viability, T/C",[39],117%
same,"viability, T/C",[40],116%
same,"viability, T/C",[41],110%
same,"viability, T/C",[42],116%
